Reference: US20080051429A1, “USE OF 4-AMINO-PIPERIDINES FOR TREATING SLEEP DISORDERS” (priority 2006, published 2008)

Columns and labels:
Experiment in all cases: R-SAT broad profiling
Format in all cases: cell-based
m5 = molecular target: T1, m5 (Homo sapiens, UniProt P08912); settings: agonist; read-out: pEC50 or pIC50 (converted)
T1 construct: expressed in transfected cells; host or cells: NIH3T3
T1 sequence (P08912 1-532): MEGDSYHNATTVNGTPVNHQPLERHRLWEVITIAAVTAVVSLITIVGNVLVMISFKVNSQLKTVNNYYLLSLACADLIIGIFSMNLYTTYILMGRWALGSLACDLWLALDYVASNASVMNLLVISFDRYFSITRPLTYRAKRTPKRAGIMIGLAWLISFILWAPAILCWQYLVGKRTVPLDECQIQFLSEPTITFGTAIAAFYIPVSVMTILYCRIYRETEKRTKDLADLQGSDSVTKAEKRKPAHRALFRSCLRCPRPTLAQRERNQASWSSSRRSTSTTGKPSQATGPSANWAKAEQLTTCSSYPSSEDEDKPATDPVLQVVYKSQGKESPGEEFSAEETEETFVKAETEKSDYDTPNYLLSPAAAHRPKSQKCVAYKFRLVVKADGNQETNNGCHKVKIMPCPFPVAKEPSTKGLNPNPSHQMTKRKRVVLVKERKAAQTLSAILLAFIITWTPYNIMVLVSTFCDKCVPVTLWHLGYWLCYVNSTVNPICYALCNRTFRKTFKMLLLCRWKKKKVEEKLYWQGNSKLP
Experimental: (§1) The functional receptor assay, Receptor Selection and Amplification Technology (R-SAT), was used (with minor modifications from that previously described U.S. Pat. No. 5,707,798) to screen compounds for efficacy at the 5-HT2A receptor. Briefly, NIH3T3 cells were grown in 96 well tissue culture plates to 70-80% confluence. Cells were transfected for 12-16 hours with plasmid DNAs using superfect (Qiagen Inc.) as per manufacture's protocols. R-SAT's were generally performed with 50 ng/well of receptor and 20 ng/well of Beta-galactosidase plasmid DNA. All receptor and G-protein constructs used were in the pSI mammalian expression vector (Promega Inc) as described in U.S. Pat. No. 5,707,798. The 5HT2A receptor gene was amplified by nested PCR from brain cDNA using the oligodeoxynucleotides based on the published sequence (see Saltzman et. al. Biochem. Biophys. Res. Comm. 181:1469-78 (1991)). Large-scale transfections, cells were transfected for 12-16 hours, then trypsinized and frozen in DMSO. Frozen cells were later thawed, plated at 10,000-40,000 cells per well of a 96 well plate that contained drug. With both methods, cells were then grown in a humidified atmosphere with 5% ambient CO2 for five days. Media was then removed from the plates and marker gene activity was measured by the addition of the beta-galactosidase substrate ONPG (in PBS with 5% NP-40). The resulting colorimetric reaction was measured in a spectrophotometric plate reader (Titertek Inc.)at […]. All data were analyzed using the computer program XLFit (IDBSm). Efficacy is the percent maximal repression compared to repression by a control compound (ritanserin in the case of 5HT2A). pIC50 is the negative of the log(IC50), where IC50 is the calculated concentration in Molar that produces 50% maximal repression.
(§2) The R-SAT assay (described above in example 289) was used to investigate the selectivity of 4-(4-Fluoro-benzyl)-3-(4-isobutoxy-benzyl)-8-methyl-1-oxa-3,8-diaza-spiro[4.5]decan-2-one.

5HT7A = molecular target: T2, 5HT7A (Homo sapiens, UniProt P34969); settings: read-out: pEC50 or pIC50 (converted)
T2 construct: expressed in transfected cells; host or cells: NIH3T3
Experimental: as §1, §2

D1 = molecular target: T3, D1 (Homo sapiens, UniProt P21728); settings: read-out: pEC50 or pIC50 (converted)
T3 construct: expressed in transfected cells; host or cells: NIH3T3
Experimental: as §1, §2

5HT6A = molecular target: T4, 5HT6A (Homo sapiens, UniProt P50406); settings: inverse; read-out: pEC50 or pIC50 (converted)
T4 construct: expressed in transfected cells; host or cells: NIH3T3
Experimental: as §1, §2

alpha 2C = molecular target: T5, alpha 2C (Homo sapiens, UniProt P18825); settings: read-out: pEC50 or pIC50 (converted)
T5 construct: expressed in transfected cells; host or cells: NIH3T3
T5 sequence (P18825 1-462): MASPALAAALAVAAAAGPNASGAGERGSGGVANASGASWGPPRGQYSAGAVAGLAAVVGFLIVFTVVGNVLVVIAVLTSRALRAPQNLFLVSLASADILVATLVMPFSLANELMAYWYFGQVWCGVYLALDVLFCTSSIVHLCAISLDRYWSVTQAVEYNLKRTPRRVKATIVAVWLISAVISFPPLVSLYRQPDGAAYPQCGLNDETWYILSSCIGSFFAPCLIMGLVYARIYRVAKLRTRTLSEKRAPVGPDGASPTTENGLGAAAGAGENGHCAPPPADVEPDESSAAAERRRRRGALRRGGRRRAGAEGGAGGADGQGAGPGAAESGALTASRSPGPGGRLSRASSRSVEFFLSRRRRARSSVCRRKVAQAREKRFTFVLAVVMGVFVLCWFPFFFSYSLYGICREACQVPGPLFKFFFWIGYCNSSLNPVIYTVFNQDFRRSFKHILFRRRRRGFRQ
Experimental: as §1, §2

alpha 2B = molecular target: T6, alpha 2B (Homo sapiens, UniProt P18089); settings: read-out: pEC50 or pIC50 (converted)
T6 construct: expressed in transfected cells; host or cells: NIH3T3
T6 sequence (P18089 1-450): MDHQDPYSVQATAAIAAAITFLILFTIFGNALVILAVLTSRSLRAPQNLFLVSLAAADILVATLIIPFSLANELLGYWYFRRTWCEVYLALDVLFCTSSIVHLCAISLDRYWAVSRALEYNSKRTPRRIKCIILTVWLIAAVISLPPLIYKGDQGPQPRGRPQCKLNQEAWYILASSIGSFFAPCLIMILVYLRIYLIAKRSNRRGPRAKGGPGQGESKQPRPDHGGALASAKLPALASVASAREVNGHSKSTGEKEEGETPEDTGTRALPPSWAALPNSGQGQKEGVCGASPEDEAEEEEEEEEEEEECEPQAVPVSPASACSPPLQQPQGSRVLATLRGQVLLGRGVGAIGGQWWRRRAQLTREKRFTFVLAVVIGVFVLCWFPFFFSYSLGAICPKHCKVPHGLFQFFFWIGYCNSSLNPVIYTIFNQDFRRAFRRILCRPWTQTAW
Experimental: as §1, §2

T3 sequence (P21728 whole entry): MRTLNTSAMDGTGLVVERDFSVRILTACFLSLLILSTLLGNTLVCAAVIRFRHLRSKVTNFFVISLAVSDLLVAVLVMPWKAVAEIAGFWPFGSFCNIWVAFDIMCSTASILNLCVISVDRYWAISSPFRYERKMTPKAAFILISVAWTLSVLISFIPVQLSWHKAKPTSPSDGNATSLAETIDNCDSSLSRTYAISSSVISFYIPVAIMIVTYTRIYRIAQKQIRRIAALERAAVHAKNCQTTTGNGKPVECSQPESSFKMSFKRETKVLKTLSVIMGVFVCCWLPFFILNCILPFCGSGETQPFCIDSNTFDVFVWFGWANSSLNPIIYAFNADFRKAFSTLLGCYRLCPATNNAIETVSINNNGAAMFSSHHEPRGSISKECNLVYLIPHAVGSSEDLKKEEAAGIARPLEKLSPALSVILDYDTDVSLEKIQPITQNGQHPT
T2 sequence (P34969 1-445 isoform P34969-2): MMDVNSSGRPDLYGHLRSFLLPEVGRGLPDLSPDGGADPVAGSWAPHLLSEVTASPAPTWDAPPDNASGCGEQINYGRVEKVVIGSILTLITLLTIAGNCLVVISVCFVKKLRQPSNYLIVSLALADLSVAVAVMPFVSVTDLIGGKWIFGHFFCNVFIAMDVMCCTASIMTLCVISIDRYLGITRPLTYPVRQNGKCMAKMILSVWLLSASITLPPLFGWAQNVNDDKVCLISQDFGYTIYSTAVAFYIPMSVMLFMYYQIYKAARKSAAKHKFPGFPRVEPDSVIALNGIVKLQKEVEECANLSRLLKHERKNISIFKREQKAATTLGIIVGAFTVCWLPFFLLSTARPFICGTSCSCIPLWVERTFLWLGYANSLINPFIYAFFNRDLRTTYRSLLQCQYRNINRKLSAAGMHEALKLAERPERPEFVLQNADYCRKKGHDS
T4 sequence (P50406 whole entry): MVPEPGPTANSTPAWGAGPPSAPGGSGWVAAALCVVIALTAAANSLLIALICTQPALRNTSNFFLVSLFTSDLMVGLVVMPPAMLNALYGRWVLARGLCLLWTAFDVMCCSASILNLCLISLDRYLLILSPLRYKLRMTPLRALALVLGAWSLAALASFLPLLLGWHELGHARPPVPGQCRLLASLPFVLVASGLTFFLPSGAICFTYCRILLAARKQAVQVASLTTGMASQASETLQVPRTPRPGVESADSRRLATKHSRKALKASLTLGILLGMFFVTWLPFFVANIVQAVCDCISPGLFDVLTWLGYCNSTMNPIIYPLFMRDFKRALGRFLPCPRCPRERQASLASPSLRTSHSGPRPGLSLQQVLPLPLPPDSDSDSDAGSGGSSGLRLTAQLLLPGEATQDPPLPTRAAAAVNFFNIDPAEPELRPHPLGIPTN

CC(C)COc1ccc(CN2C(=O)OC3(CCN(C)CC3)C2Cc2ccc(F)cc2)cc1.Cl (racemic) [Example 69NLS75, 4-(4-Fluorobenzyl)-3-(4-isobutoxybenzyl)-8-methyl-1-oxa-3,8-diazaspiro[4.5]decan-2-one, hydrochloride]
> 3.16 µM: EC50 (m5) | EC50 (5HT7A; agonist) | IC50 (5HT7A; inverse) | EC50 (D1; agonist) | IC50 (D1; antagonist) | IC50 (5HT6A) | EC50 (alpha 2C; agonist) | IC50 (alpha 2C; antagonist) | EC50 (alpha 2B; agonist) | IC50 (alpha 2B; antagonist)
